Assay results taken from ChEMBL document CHEMBL3867424, “Exploring the readthrough of nonsense mutations by non-acidic Ataluren analogues selected by ligand-based virtual screening” (Eur J Med Chem, 2016).
The source made the active and inactive calls. The calls are words filed in the database; no cut-off is given here.

Tests used:
[1] = Cytotoxicity against human HeLa cells assessed as reduction in cell viability at 300 ug/ml measured after 24 to 72 hrs; assay type: toxicity, cell-based
[2] = Cytotoxicity against human HeLa cells assessed as reduction in cell viability at 12 uM measured after 24 to 72 hrs; assay type: toxicity, cell-based
HeLa = test: Binding affinity to Photinus pyralis luciferase mRNA harboring the UGA premature stop codon expressed in human HeLa cells assessed as suppression of nonsense mutations by read-through of premature stop codon at 12 uM measured after 24 hrs by luminescence analysis; assay type: cell-based
IB3-1 [3] = test: Binding affinity to CFTR mRNA UGA mutant in human IB3-1 cells carrying W1282X mutation in CFTR gene assessed as increase in CFTR expression measured after 24 to 72 hrs by Western blot analysis; assay type: cell-based
IB3-1 [4] = test: (§1) Binding affinity to CFTR mRNA UGA mutant in human IB3-1 cells carrying W1282X mutation in CFTR gene assessed as suppression of nonsense mutations by read-through of UGA premature stop codon measured as induction of CFTR re-expression after 24 hrs by DAPI/Alexa-488/WGA-Alexa594 staining-based immunofluorescence analysis; assay type: cell-based
IB3-1 [5] = test: as §1, with “localization” for “induction”, “in cell membrane” for “re-expression”; assay type: cell membranes

Structure (SMILES) | Activity [2] | further results
CN[C@@H]1[C@@H](O)[C@@H](O[C@H]2[C@H](O)[C@@H](O[C@H]3O[C@H](C(C)O)[C@@H](O)[C@H](O)[C@H]3N)[C@H](N)C[C@@H]2N)OC[C@]1(C)O (some centres undefined) | – | Activity [1]: Toxic
Cc1cccc(-c2nc(-c3ccncc3)no2)c1 | Non-Toxic | –
O=C(O)c1cccc(-c2noc(-c3ccccc3F)n2)c1 [ATALUREN] | Non-Toxic | Activity (HeLa): Active; Activity (IB3-1 [3]): Active
Cc1cccc(-c2noc(-c3ccccc3C)n2)c1 | Non-Toxic | –
Cc1cccc(-c2nc(-c3ccccn3)no2)c1 | Non-Toxic | Activity (IB3-1 [4]): Active; Activity (IB3-1 [5]): Active; Activity (HeLa): Active; Activity (IB3-1 [3]): Active
N#Cc1cccc(-c2nc(-c3ccccn3)no2)c1 | Non-Toxic | –
Cc1cccc(-c2nc(-c3ccccc3)no2)c1 | Non-Toxic | –
Cc1cccc(-c2nc(-c3cccnc3)no2)c1 | Non-Toxic | –
